Where two headings read alike, the source gives them in different places.
Assays:
p38a/MK2 = p38a/MK2 (Homo sapiens (Human), UniProt P49137+Q16539); assay: p38a/MK2 biochemical assay: activation of MK2 by p38, FITC-HSP27 peptide phosphorylation (IMAP FP); settings: 10-point 1:3 dilution, 60 pM active p38a, 1 nM inactive MK2, 10 μM ATP, 2 h incubation
p38a/PRAK = p38a/PRAK (Homo sapiens (Human), UniProt Q16539); assay: p38a/PRAK biochemical assay: activation of PRAK by p38, FITC-HSP27 peptide phosphorylation (IMAP FP); settings: 10-point 1:3 dilution, top dose 300 μM; 60 pM active p38a, 1 nM inactive PRAK, 10 μM ATP, 2 h incubation; read-out: p38a/PRAK Enzyme pIC50 (converted)
How it was run: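 GST-tagged MK2 (F46–H400) and PRAK (M1–Q471), expressed in E. coli, activated by p38 and phosphorylate FITC-HSP27 peptide over 2 h with compound; readout by IMAP fluorescence polarisation (ex 485/em 528 nm). Ten-point 1:3 dilutions, top dose 1 μM for MK2 and 300 μM for PRAK. IC50 after vehicle normalisation; selectivity = IC50(PRAK)/IC50(MK2).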

[1] = top dose 10 μM, read-out: p38a/MK2 (10 μM) Enzyme pIC50 (converted)
[2] = top dose 1 μM, read-out: p38a/MK2 (1 μM) Enzyme pIC50 (converted)

p38a/MK2, sequence (P49137 46-400): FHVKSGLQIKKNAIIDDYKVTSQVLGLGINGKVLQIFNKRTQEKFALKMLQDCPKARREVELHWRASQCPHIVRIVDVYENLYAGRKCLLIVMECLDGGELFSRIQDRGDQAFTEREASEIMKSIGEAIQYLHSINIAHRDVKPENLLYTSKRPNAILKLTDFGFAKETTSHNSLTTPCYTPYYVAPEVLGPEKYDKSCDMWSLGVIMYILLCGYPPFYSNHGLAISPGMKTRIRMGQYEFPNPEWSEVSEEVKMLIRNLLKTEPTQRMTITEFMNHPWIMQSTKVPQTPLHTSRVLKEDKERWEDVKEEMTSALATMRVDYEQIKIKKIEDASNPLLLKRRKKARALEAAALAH
p38a/MK2, sequence (Q16539 whole entry): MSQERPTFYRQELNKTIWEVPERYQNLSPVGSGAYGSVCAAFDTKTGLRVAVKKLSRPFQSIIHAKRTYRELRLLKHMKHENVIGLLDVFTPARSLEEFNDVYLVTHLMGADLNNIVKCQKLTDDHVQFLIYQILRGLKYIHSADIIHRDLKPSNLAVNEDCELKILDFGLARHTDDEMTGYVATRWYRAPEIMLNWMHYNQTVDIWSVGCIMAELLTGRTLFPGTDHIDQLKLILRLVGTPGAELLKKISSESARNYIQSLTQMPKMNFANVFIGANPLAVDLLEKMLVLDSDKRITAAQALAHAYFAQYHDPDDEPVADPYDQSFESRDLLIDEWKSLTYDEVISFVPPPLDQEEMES
p38a/PRAK, sequence (Q16539 whole entry): as above

Row | IC50 (p38a/MK2; [1]) | IC50 (p38a/PRAK) | IC50 (p38a/MK2; [2]) | SMILES | p38a/MK2 (10 μM) Enzyme pIC50 (p38a/MK2; top dose 10 μM)
1 | 1000 nM | > 316000 nM |  | Cc1cnc(-c2ccc3c(n2)C(C)(O)CC3)cc1-n1c(C)cc(OCc2ncc(F)cc2F)c(Cl)c1=O (single isomer, unassigned) [Example 32B] | 
2 | 63.1 nM | 6310 nM |  | Cc1cnc(-c2ccc3c(n2)C(C)(O)CC3)cc1-n1c(C)cc(OCc2ncc(F)cc2F)c(Cl)c1=O (single isomer, unassigned) [Example 32C] | 
3 | 1260 nM | > 316000 nM |  | Cc1cnc(-c2ccc3c(n2)C(C)(O)CC3)cc1-n1c(C)cc(OCc2ncc(F)cc2F)c(Cl)c1=O (single isomer, unassigned) [Example 32D] | 
4 |  | 10000 nM | 20 nM | Cc1cnc(-c2cccc([C@@H](O)CO)n2)cc1-n1c(C)cc(OCc2ncc(F)cc2F)c(Cl)c1=O (single isomer, unassigned) [Example 34A, rel-3-chloro-4-[(3,5-difluoropyridin-2-yl)methoxy]-2′-[6-(1,2-dihydroxyethyl)pyridin-2-yl]-5′,6-dimethyl-[1,4′-bipyridin]-2-one] | 
5 | 3160 nM | > 316000 nM |  | Cc1cnc(-c2cccc([C@@H](O)CO)n2)cc1-n1c(C)cc(OCc2ncc(F)cc2F)c(Cl)c1=O (single isomer, unassigned) [Example 34D, rel-3-chloro-4-[(3,5-difluoropyridin-2-yl)methoxy]-2′-[6-(1,2-dihydroxyethyl)pyridin-2-yl]-5′,6-dimethyl-[1,4′-bipyridin]-2-one] | 
6 |  | 10000 nM | 50.1 nM | Cc1cnc(-c2ccnc(C(O)C3CC3)n2)cc1-n1c(C)cc(OCc2ncc(F)cc2F)c(Cl)c1=O (single isomer, unassigned) [Example 35A, rel-3-chloro-2′-{2-[cyclopropyl(hydroxy)methyl]pyrimidin-4-yl}-4-[(3,5-difluoropyridin-2-yl)methoxy]-5′,6-dimethyl-[1,4′-bipyridin]-2-one] | 
7 |  | 5010 nM | 15.8 nM | Cc1cnc(-c2ccnc(C(O)C3CC3)n2)cc1-n1c(C)cc(OCc2ncc(F)cc2F)c(Cl)c1=O (single isomer, unassigned) [Example 35B, rel-3-chloro-2′-{2-[cyclopropyl(hydroxy)methyl]pyrimidin-4-yl}-4-[(3,5-difluoropyridin-2-yl)methoxy]-5′,6-dimethyl-[1,4′-bipyridin]-2-one] | 
8 |  | > 316000 nM | > 1000 nM | Cc1cnc(-c2ccnc(C(O)C3CC3)n2)cc1-n1c(C)cc(OCc2ncc(F)cc2F)c(Cl)c1=O (single isomer, unassigned) [Example 35C, rel-3-chloro-2′-{2-[cyclopropyl(hydroxy)methyl]pyrimidin-4-yl}-4-[(3,5-difluoropyridin-2-yl)methoxy]-5′,6-dimethyl-[1,4′-bipyridin]-2-one] | 
9 |  | > 316000 nM | > 1000 nM | Cc1cnc(-c2ccnc([C@@H](O)C3CC3)n2)cc1-n1c(C)cc(OCc2ncc(F)cc2F)c(Cl)c1=O (single isomer, unassigned) [Example 35D, rel-3-chloro-2′-{2-[cyclopropyl(hydroxy)methyl]pyrimidin-4-yl}-4-[(3,5-difluoropyridin-2-yl)methoxy]-5′,6-dimethyl-[1,4′-bipyridin]-2-one] | 
10 |  | 2510 nM | 5.01 nM | Cc1cnc(-n2ccc(C(C)(C)CO)n2)cc1-n1c(C)cc(OCc2ncc(F)cc2F)c(Cl)c1=O (single isomer, unassigned) [Example 37A, rel-3-chloro-4-[(3,5-difluoropyridin-2-yl)methoxy]-2′-[3-(1-hydroxy-2-methylpropan-2-yl)pyrazol-1-yl]-5′,6-dimethyl-[1,4′-bipyridin]-2-one] | 
11 |  | > 316000 nM | > 1000 nM | Cc1cnc(-n2ccc(C(C)(C)CO)n2)cc1-n1c(C)cc(OCc2ncc(F)cc2F)c(Cl)c1=O (single isomer, unassigned) [Example 37B, rel-3-chloro-4-[(3,5-difluoropyridin-2-yl)methoxy]-2′-[3-(1-hydroxy-2-methylpropan-2-yl)pyrazol-1-yl]-5′,6-dimethyl-[1,4′-bipyridin]-2-one] | 
12 |  | 31600 nM | 100 nM | Cc1cnc(-c2ccnc(C(C)(C)O)c2)cc1-n1c(C)cc(OCc2ncc(F)cc2F)c(Cl)c1=O (single isomer, unassigned) [Example 38A, rel-3-chloro-4-[(3,5-difluoropyridin-2-yl)methoxy]-2′-[2-(2-hydroxypropan-2-yl)pyridin-4-yl]-5′,6-dimethyl-[1,4′-bipyridin]-2-one] | 
13 |  | > 316000 nM | > 1000 nM | Cc1cnc(-c2ccnc(C(C)(C)O)c2)cc1-n1c(C)cc(OCc2ncc(F)cc2F)c(Cl)c1=O (single isomer, unassigned) [Example 38B, rel-3-chloro-4-[(3,5-difluoropyridin-2-yl)methoxy]-2′-[2-(2-hydroxypropan-2-yl)pyridin-4-yl]-5′,6-dimethyl-[1,4′-bipyridin]-2-one] | 

Row | SMILES | IC50 (p38a/MK2; [1]) | IC50 (p38a/PRAK) | IC50 (p38a/MK2; [2]) | p38a/MK2 (10 μM) Enzyme pIC50 (p38a/MK2; top dose 10 μM)
14 | Cc1sc(-c2ccnc(C(C)(C)O)n2)cc1-n1c(C)cc(OCc2ncc(F)cc2F)c(Cl)c1=O (single isomer, unassigned) [Example 33A, 3-chloro-4-[(3,5-difluoropyridin-2-yl)methoxy]-1-{5-[2-(2-hydroxypropan-2-yl)pyrimidin-4-yl]-2-methylthiophen-3-yl}-6-methylpyridin-2-one] |  | 5010 nM | 25.1 nM | 
15 | Cc1sc(-c2ccnc(C(C)(C)O)n2)cc1-n1c(C)cc(OCc2ncc(F)cc2F)c(Cl)c1=O (single isomer, unassigned) [Example 33B, 3-chloro-4-[(3,5-difluoropyridin-2-yl)methoxy]-1-{5-[2-(2-hydroxypropan-2-yl)pyrimidin-4-yl]-2-methylthiophen-3-yl}-6-methylpyridin-2-one] |  | 50100 nM |  | 6.5
16 | Cc1cnc(-c2cccc([C@H](O)CO)n2)cc1-n1c(C)cc(OCc2ncc(F)cc2F)c(Cl)c1=O (single isomer, unassigned) [Example 34B, rel-3-chloro-4-[(3,5-difluoropyridin-2-yl)methoxy]-2′-[6-(1,2-dihydroxyethyl)pyridin-2-yl]-5′,6-dimethyl-[1,4′-bipyridin]-2-one] | 12.6 nM | 6310 nM |  | 
17 | Cc1cnc(-c2cccc([C@H](O)CO)n2)cc1-n1c(C)cc(OCc2ncc(F)cc2F)c(Cl)c1=O (single isomer, unassigned) [Example 34C, rel-3-chloro-4-[(3,5-difluoropyridin-2-yl)methoxy]-2′-[6-(1,2-dihydroxyethyl)pyridin-2-yl]-5′,6-dimethyl-[1,4′-bipyridin]-2-one] | 2000 nM | > 316000 nM |  | 
18 | Cc1cnc(-c2cccc([C@@](C)(O)CO)n2)cc1-n1c(C)cc(OCc2ncc(F)cc2F)c(Cl)c1=O (single isomer, unassigned) [Example 36B, rel-3-chloro-4-[(3,5-difluoropyridin-2-yl)methoxy]-2′-[6-(1,2-dihydroxypropan-2-yl)pyridin-2-yl]-5′,6-dimethyl-[1,4′-bipyridin]-2-one] |  | 15800 nM | 6.31 nM | 
19 | Cc1cnc(-c2cccc(C(C)(O)CO)n2)cc1-n1c(C)cc(OCc2ncc(F)cc2F)c(Cl)c1=O (single isomer, unassigned) [Example 36C, rel-3-chloro-4-[(3,5-difluoropyridin-2-yl)methoxy]-2′-[6-(1,2-dihydroxypropan-2-yl)pyridin-2-yl]-5′,6-dimethyl-[1,4′-bipyridin]-2-one] |  | > 316000 nM | > 1000 nM | 
